In patent US20220259655A1, “METHODS FOR ASSESSING THE RISK OF DEVELOPING SEVERE CUTANEOUS ADVERSE DRUG REACTIONS INDUCED BY DISEASE-MODIFYING ANTIRHEUMATIC DRUGS, DETECTION KIT THEREOF AND USES THEREOF” (CHANG GUNG MEMORIAL HOSPITAL, LINKOU, priority 2019, published 2022):
Read-outs that look alike come from different tables or passages of the source.

Legend:
[1] = target: HLA-B*3802 allele (Homo sapiens, UniProt P01889, A182T/A93T/A95T/C349S/D138N/D201E/D98Y/E176V/E187T/E204Q/G107R/K202T/L105A/N104T/Q94N/R106L/R155S/R180L/S101N/S121R/Y140F/Y91C); settings: HLA-B*38:02
[2] = target: HLA-B*1301 allele (Homo sapiens, UniProt P01889, A65T/A93T/A95T/D138N/D201E/D98Y/E176V/E204Q/E69M/E70A/G107R/K202T/L105A/L119I/N104T/N87E/Q94N/R106L/R155S/R169L/R180L/S101N/S121R/S35A/S48T/T118I/V127L/V36M/Y140L/Y91S); settings: HLA-B*13:01
[3] = target: HLA-B*1502 allele (Homo sapiens, UniProt P01889, A329T/A93T/A95T/C349S/D201E/D98Y/E187L/E204Q/E69M/E70A/H137Y/K202T/L119I/Q94N/R155S/R180L/S121R/S35A/S48A/T118I/V306I/V36M/Y140S/Y91S); settings: HLA-B*15:02
[4] = patients taking sulfasalazine; clinical setting; cited from earlier work
[5] = tested on: combination of HLA-B*1301 allele, HLA-B*1502 allele, HLA-B*3802 allele and HLA-B*3901 allele; settings: in vivo
[6] = tested on: combination of HLA-B*1502 allele and HLA-B*3802 allele; settings: in vivo
[7] = target: HLA-B*3901 allele (Homo sapiens, UniProt P01889, A182T/A93T/A95T/C349S/D138N/D201E/E176V/E187T/E204Q/K202T/Q94N/R155S/R180L/S121R/Y140F/Y91C); settings: HLA-B*39:01
[8] = tested on: combination of HLA-B*1301 allele and HLA-B*3901 allele; settings: in vivo
[9] = tested on: combination of HLA-B*1301 allele, HLA-B*3802 allele and HLA-B*3901 allele; settings: in vivo
[10] = Sulfasalazine-DRESS vs healthy control
[11] = Sulfasalazine-SCAR vs healthy control
[12] = Sulfasalazine-SJS/TEN patients, listed as sulfasalazine
[13] = Sulfasalazine-SJS/TEN vs healthy control
[14] = Sulfasalazine-SJS/TEN vs healthy control, listed as sulfasalazine
[15] = Sulfasalazine-DRESS patients, listed as sulfasalazine
[16] = Sulfasalazine-DRESS vs healthy control, listed as sulfasalazine

Sensitivity (%) ([1]; Sulfasalazine-DRESS): 0% | Specificity (%) ([1]; Sulfasalazine-DRESS): 92.45% | SCAR N (%) carrying the allele ([1]; Sulfasalazine-DRESS patients): 0/21 | Odds Ratio (95% CI) [1, 10]: 0.3 | Sensitivity (%) ([1]; Sulfasalazine-SCAR): 18.75% | Specificity (%) ([1]; Sulfasalazine-SCAR): 92.45% | SCAR N (%) carrying the allele ([1]; Sulfasalazine-SCAR patients): 6/32 | Odds Ratio (95% CI) [1, 11]: 2.8 | Sensitivity (%) ([1]; Sulfasalazine-SJS/TEN): 54.54% | Specificity (%) ([1]; Sulfasalazine-SJS/TEN): 92.45% | SCAR N (%) carrying the allele ([1]; Sulfasalazine-SJS/TEN patients): 6/11 | SCAR N (%) carrying the allele [1, 12]: 6 out of 11 | Odds Ratio (95% CI) [1, 13]: 14.7 | Odds Ratio (95% CI) [1, 14]: 14.7 (4.4-49.4) | Sensitivity (%) ([2]; Sulfasalazine-DRESS): 38.10% | Specificity (%) ([2]; Sulfasalazine-DRESS): 87.89% | SCAR N (%) carrying the allele ([2]; Sulfasalazine-DRESS patients): 8/21 | SCAR N (%) carrying the allele [2, 15]: 8 of 21 | Odds Ratio (95% CI) [2, 10]: 4.5 | Odds Ratio (95% CI) [2, 16]: 4.5 (1.8-11.0) | Sensitivity (%) ([2]; Sulfasalazine-SCAR): 28.13% | Specificity (%) ([2]; Sulfasalazine-SCAR): 87.89% | SCAR N (%) carrying the allele ([2]; Sulfasalazine-SCAR patients): 9/32 | Odds Ratio (95% CI) [2, 11]: 2.8 | Sensitivity (%) ([2]; Sulfasalazine-SJS/TEN): 9.09% | Specificity (%) ([2]; Sulfasalazine-SJS/TEN): 87.89% | SCAR N (%) carrying the allele ([2]; Sulfasalazine-SJS/TEN patients): 1/11 | Odds Ratio (95% CI) [2, 13]: 0.7 | Sensitivity (%) ([3]; Sulfasalazine-DRESS): 9.53% | Specificity (%) ([3]; Sulfasalazine-DRESS): 90.75% | SCAR N (%) carrying the allele ([3]; Sulfasalazine-DRESS patients): 2/21 | Odds Ratio (95% CI) [3, 10]: 1.0 | Sensitivity (%) ([3]; Sulfasalazine-SCAR): 21.88% | Specificity (%) ([3]; Sulfasalazine-SCAR): 90.75% | SCAR N (%) carrying the allele ([3]; Sulfasalazine-SCAR patients): 7/32 | Odds Ratio (95% CI) [3, 11]: 2.7 | Sensitivity (%) ([3]; Sulfasalazine-SJS/TEN): 45.45% | Specificity (%) ([3]; Sulfasalazine-SJS/TEN): 90.75% | SCAR N (%) carrying the allele ([3]; Sulfasalazine-SJS/TEN patients): 5/11 | SCAR N (%) carrying the allele [3, 12]: 5 out of 11 | Odds Ratio (95% CI) [3, 13]: 8.2 | Odds Ratio (95% CI) [3, 14]: 8.2 (2.4-27.4) | SCAR N (%) carrying the alleles [5]: 24/32 | Sensitivity (%) [5]: 75.00% | Specificity (%) [5]: 60.35% | Specificity (%) [6]: 83.74% | Sensitivity (%) ([7]; Sulfasalazine-DRESS): 38.10% | Specificity (%) ([7]; Sulfasalazine-DRESS): 95.43% | SCAR N (%) carrying the allele ([7]; Sulfasalazine-DRESS patients): 8/21 | SCAR N (%) carrying the allele [7, 15]: 8 of 21 | Odds Ratio (95% CI) [7, 10]: 12.2 | Odds Ratio (95% CI) [7, 16]: 12.2 (4.6-32.5) | Sensitivity (%) ([7]; Sulfasalazine-SCAR): 28.13% | Specificity (%) ([7]; Sulfasalazine-SCAR): 95.43% | SCAR N (%) carrying the allele ([7]; Sulfasalazine-SCAR patients): 9/32 | Odds Ratio (95% CI) [7, 11]: 8.2 | Sensitivity (%) ([7]; Sulfasalazine-SJS/TEN): 0% | Specificity (%) ([7]; Sulfasalazine-SJS/TEN): 95.43% | SCAR N (%) carrying the allele ([7]; Sulfasalazine-SJS/TEN patients): 0/11 | Odds Ratio (95% CI) [7, 13]: 1.1 | Specificity (%) [8]: 83.95% | SCAR N (%) carrying the alleles [9]: 22/32 | Sensitivity (%) [9]: 68.75% | Specificity (%) [9]: 78.32%
SMILES: O=C(O)c1cc(/N=N/c2ccc(S(=O)(=O)Nc3ccccn3)cc2)ccc1O [Sulfasalazine]
patients developing obvious side effects [4]: Approximately 25%
